Where a SMILES comes first, the peptide text is derived from it. [ ]: non-standard residue; d: D form. Gly(octyl) = CCCCCCCC[C@H](N)C(=O)O; N(CH2CH2COOH)Gly = O=C(O)CCNCC(=O)O; β3hQ = NC(=O)CC[C@H](N)CC(=O)O; Nlys = NCCCCNCC(=O)O
Legend:
Format in all cases: biochemical
[1] = molecular target: T1, human neutrophil elastase (Homo sapiens, UniProt P08246); assay: Inhibition of human neutrophil elastase (hydrolysis of MeOSuc-AAPV-pNA); settings: substrate MeOSuc-AAPV-pNA 0.3 mM, enzyme 10 nM, 37° C., pH 8; read-out: Human neutrophil elastase (hNE) IC50
T1 construct: purchased Serva Electrophoresis, Germany
T1 sequence (P08246 30-267): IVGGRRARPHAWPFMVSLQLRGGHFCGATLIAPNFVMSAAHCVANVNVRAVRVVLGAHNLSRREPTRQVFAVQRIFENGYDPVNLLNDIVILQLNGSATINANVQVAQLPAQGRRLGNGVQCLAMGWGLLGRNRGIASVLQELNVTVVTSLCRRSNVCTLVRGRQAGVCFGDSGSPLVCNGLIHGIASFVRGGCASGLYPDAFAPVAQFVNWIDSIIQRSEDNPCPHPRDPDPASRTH
How it was run: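 MeOSuc-AAPV-pNA (0.3 mM) hydrolysis by 10 nM enzyme at 37° C with serially diluted peptides (1% DMSO) in 50 mM Tris pH 8, 300 mM NaCl, 0.01% Tween20. pNA release read at 405 nm over 30 minutes; IC50 from 4-parameter Hill fit.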

[2] = molecular target: T2, porcine pancreatic elastase (Sus scrofa, UniProt P00772); assay: Inhibition of porcine pancreatic elastase (hydrolysis of MeOSuc-AAA-pNA); settings: for hNE/PPE selectivity: ratio of PPE IC50 to hNE IC50; for IC50: substrate MeOSuc-AAA-pNA 1 mM, enzyme 15 nM, 37° C., pH8, read-out: Porcine pancreatic elastase (PPE) IC50
T2 construct: purchased Sigma, USA
How it was run: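 Elastase (15 nM) incubated at 37 °C with 1 mM MeOSuc-AAA-pNA and serially diluted peptides (0.5% DMSO) in 50 mM Tris pH 8, 100 mM NaCl, 0.01% Tween20. pNA release read at 405 nm over 30 min; IC50 from 4-parameter Hill fit.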

human proteinase 3 = molecular target: T3, human proteinase 3 (Homo sapiens, UniProt P24158); assay: Inhibition of human proteinase 3 (substrate Boc-Ala-Ala-Nva-SBzl); settings: for hNE/hPr3 selectivity: ratio of hPr3 IC50 to hNE IC50; for IC50: substrate Boc-Ala-Ala-Nva-SBzl 1 mM, enzyme 10 nM, 37° C., pH7.4, read-out: Human proteinase 3 (hPr3) IC50
T3 construct: purchased Elastin Products Company, USA
T3 sequence (P24158 28-248): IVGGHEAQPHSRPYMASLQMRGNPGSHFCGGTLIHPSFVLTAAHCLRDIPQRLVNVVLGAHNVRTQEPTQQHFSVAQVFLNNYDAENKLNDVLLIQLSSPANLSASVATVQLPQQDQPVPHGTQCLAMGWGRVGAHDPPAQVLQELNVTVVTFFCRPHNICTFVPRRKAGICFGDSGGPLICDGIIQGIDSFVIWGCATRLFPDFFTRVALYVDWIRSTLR
How it was run: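 Enzyme at 10 nM incubated at 37°C with 1 mM thiobenzyl ester substrate, 250 μM 4,4′-dithiodipyridine and serial peptide dilutions (0.5% DMSO) in Tris pH 7.4, 150 mM NaCl, 0.01% Tween20. Absorbance at 340 nm followed over 30 min; IC50 from 4-parameter Hill fit.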

T2 sequence (P00772 27-266): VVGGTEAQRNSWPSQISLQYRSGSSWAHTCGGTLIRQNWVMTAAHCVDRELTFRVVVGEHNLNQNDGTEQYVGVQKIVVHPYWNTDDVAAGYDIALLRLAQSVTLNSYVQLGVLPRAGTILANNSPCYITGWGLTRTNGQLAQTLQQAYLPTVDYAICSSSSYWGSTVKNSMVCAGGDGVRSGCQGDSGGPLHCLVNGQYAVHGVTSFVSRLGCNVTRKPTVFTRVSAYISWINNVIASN

SMILES: CCCCCCCC[C@@H]1NC(=O)[C@H](C(C)C)NC(=O)[C@@H](CCCCN)NC(=O)[C@H]([C@@H](C)O)NC(=O)[C@H](CCCCN)NC(=O)[C@H](CCC(N)=O)NC(=O)[C@@H]2CCCN2C(=O)[C@@H]2CCCN2C(=O)[C@H]([C@@H](C)CC)NC(=O)[C@H](CO)NC(=O)[C@H](C)NC(=O)[C@H]([C@@H](C)O)NC(=O)[C@H](CCC(=O)O)NC1=O [Example 26, Cyclo(-OctGly-Glu-Thr-Ala-Ser-Ile-Pro-Pro-GI n-Lys-Thr-^DLys-Val-)] (cyclo([Gly(octyl)]ETASIPPQKT[dK]V))
- IC50 [1]: 10.6 nM
- hNE/PPE selectivity [2]: 4415
- IC50 [2]: 46.8 µM
- hNE/hPr3 selectivity (human proteinase 3): 472
- IC50 (human proteinase 3): 5 µM

SMILES: CCCCCCCC[C@@H]1NC(=O)[C@H](Cc2ccc(O)cc2)NC(=O)[C@@H](CCCCN)NC(=O)[C@H]([C@@H](C)O)NC(=O)[C@H](CCCCN)NC(=O)[C@H](CCC(N)=O)NC(=O)[C@@H]2CCCN2C(=O)[C@@H]2CCCN2C(=O)[C@H]([C@@H](C)CC)NC(=O)[C@H](CO)NC(=O)[C@H](C)NC(=O)[C@H]([C@@H](C)O)NC(=O)[C@H](CCC(=O)O)NC1=O [Example 27, Cyclo(-OctGly-Glu-Thr-Ala-Ser-Ile-Pro-Pro-GI n-Lys-Thr-^DLys-Tyr-)] (cyclo([Gly(octyl)]ETASIPPQKT[dK]Y))
- IC50 [1]: 10.1 nM
- hNE/PPE selectivity [2]: 4366
- IC50 [2]: 44.1 µM
- hNE/hPr3 selectivity (human proteinase 3): 3921
- IC50 (human proteinase 3): 39.6 µM

SMILES: CCCCCCCC[C@@H]1NC(=O)[C@H](CCCCN)NC(=O)[C@@H](CCCCN)NC(=O)[C@H]([C@@H](C)O)NC(=O)[C@H](CCCCN)NC(=O)[C@H](CCC(N)=O)NC(=O)[C@@H]2CCCN2C(=O)[C@@H]2CCCN2C(=O)[C@H]([C@@H](C)CC)NC(=O)[C@H](CO)NC(=O)[C@H](C)NC(=O)[C@H]([C@@H](C)O)NC(=O)[C@H](CCC(=O)O)NC1=O [Example 28, Cyclo(-OctGly-Glu-Thr-Ala-Ser-Ile-Pro-Pro-GI n-Lys-Thr-^DLys-Lys-)] (cyclo([Gly(octyl)]ETASIPPQKT[dK]K))
- IC50 [1]: 12 nM
- hNE/PPE selectivity [2]: >8333
- IC50 [2]: > 100 µM
- hNE/hPr3 selectivity (human proteinase 3): >8333
- IC50 (human proteinase 3): > 100 µM

SMILES: CCCCCCCC[C@@H]1NC(=O)[C@H](CCC(=O)O)NC(=O)[C@@H](CCCCN)NC(=O)[C@H]([C@@H](C)O)NC(=O)[C@H](CCCCN)NC(=O)[C@H](CCC(N)=O)NC(=O)[C@@H]2CCCN2C(=O)[C@@H]2CCCN2C(=O)[C@H]([C@@H](C)CC)NC(=O)[C@H](CO)NC(=O)[C@H](C)NC(=O)[C@H]([C@@H](C)O)NC(=O)[C@H](CCC(=O)O)NC1=O [Example 29, Cyclo(-OctGly-Glu-Thr-Ala-Ser-Ile-Pro-Pro-Gln-Lys-Thr-^DLys-Glu-)] (cyclo([Gly(octyl)]ETASIPPQKT[dK]E))
- IC50 [1]: 11.8 nM
- hNE/PPE selectivity [2]: 1085
- IC50 [2]: 12.8 µM
- hNE/hPr3 selectivity (human proteinase 3): 5305
- IC50 (human proteinase 3): 62.6 µM

SMILES: CCCCCCCC[C@@H]1NC(=O)[C@H](C(C)C)NC(=O)[C@@H](CO)NC(=O)[C@H]([C@@H](C)O)NC(=O)[C@H](CCCCN)NC(=O)[C@H](CCC(N)=O)NC(=O)[C@@H]2CCCN2C(=O)[C@@H]2CCCN2C(=O)[C@H]([C@@H](C)CC)NC(=O)[C@H](CO)NC(=O)[C@H](C)NC(=O)[C@H]([C@@H](C)O)NC(=O)[C@H](CCC(=O)O)NC1=O [Example 30, Cyclo(-OctGly-Glu-Thr-Ala-Ser-Ile-Pro-Pro-Gln-Lys-Thr-^DSer-Val-)] (cyclo([Gly(octyl)]ETASIPPQKT[dS]V))
- IC50 [1]: 12 nM
- hNE/PPE selectivity [2]: 4267
- IC50 [2]: 51.2 µM
- hNE/hPr3 selectivity (human proteinase 3): 1192
- IC50 (human proteinase 3): 14.3 µM

SMILES: CCCCCCCC[C@@H]1NC(=O)[C@H](Cc2ccc(O)cc2)NC(=O)[C@@H](CO)NC(=O)[C@H]([C@@H](C)O)NC(=O)[C@H](CCCCN)NC(=O)[C@H](CCC(N)=O)NC(=O)[C@@H]2CCCN2C(=O)[C@@H]2CCCN2C(=O)[C@H]([C@@H](C)CC)NC(=O)[C@H](CO)NC(=O)[C@H](C)NC(=O)[C@H]([C@@H](C)O)NC(=O)[C@H](CCC(=O)O)NC1=O [Example 31, Cyclo(-OctGly-Glu-Thr-Ala-Ser-Ile-Pro-Pro-GI n-Lys-Thr-^DSer-Tyr-)] (cyclo([Gly(octyl)]ETASIPPQKT[dS]Y))
- IC50 [1]: 22.9 nM
- hNE/PPE selectivity [2]: 2275
- IC50 [2]: 52.1 µM
- hNE/hPr3 selectivity (human proteinase 3): 1432
- IC50 (human proteinase 3): 32.8 µM

SMILES: CCCCCCCC[C@@H]1NC(=O)[C@H](CCCCN)NC(=O)[C@@H](CO)NC(=O)[C@H]([C@@H](C)O)NC(=O)[C@H](CCCCN)NC(=O)[C@H](CCC(N)=O)NC(=O)[C@@H]2CCCN2C(=O)[C@@H]2CCCN2C(=O)[C@H]([C@@H](C)CC)NC(=O)[C@H](CO)NC(=O)[C@H](C)NC(=O)[C@H]([C@@H](C)O)NC(=O)[C@H](CCC(=O)O)NC1=O [Example 32, Cyclo(-OctGly-Glu-Thr-Ala-Ser-Ile-Pro-Pro-GI n-Lys-Thr-^DSer-Lys-)] (cyclo([Gly(octyl)]ETASIPPQKT[dS]K))
- IC50 [1]: 22.3 nM
- hNE/PPE selectivity [2]: 4036
- IC50 [2]: 90 µM
- hNE/hPr3 selectivity (human proteinase 3): >4484
- IC50 (human proteinase 3): > 100 µM

SMILES: CCCCCCCC[C@@H]1NC(=O)[C@@H]2CCCN2C(=O)[C@H]2CCCN2C(=O)[C@H]([C@@H](C)O)NC(=O)[C@H](CCCCN)NC(=O)[C@H](CCC(N)=O)NC(=O)[C@@H]2CCCN2C(=O)CN(CCCCN)C(=O)[C@H]([C@@H](C)CC)NC(=O)[C@H](CO)NC(=O)[C@H](C)NC(=O)[C@H]([C@@H](C)O)NC(=O)[C@H](CCC(=O)O)NC1=O [Example 33, Cyclo(-OctGly-Glu-Thr-Ala-Ser-Ile-Nlys-Pro-Gln-Lys-Thr-^DPro-Pro-)] (cyclo([Gly(octyl)]ETASI[Nlys]PQKT[dP]P))
- IC50 [1]: 7 nM
- hNE/PPE selectivity [2]: 1186
- IC50 [2]: 8.3 µM
- hNE/hPr3 selectivity (human proteinase 3): 871
- IC50 (human proteinase 3): 6.1 µM

SMILES: CCCCCCCC[C@@H]1NC(=O)[C@@H]2CCCN2C(=O)[C@H]2CCCN2C(=O)[C@H]([C@@H](C)O)NC(=O)[C@H](CCCCN)NC(=O)[C@H](CCC(N)=O)NC(=O)CN(CCC(=O)O)C(=O)[C@@H]2CCCN2C(=O)[C@H]([C@@H](C)CC)NC(=O)[C@H](CO)NC(=O)[C@H](C)NC(=O)[C@H]([C@@H](C)O)NC(=O)[C@H](CCC(=O)O)NC1=O [Example 34, Cyclo(-OctGly-Glu-Thr-Ala-Ser-Ile-Pro-Nglu-Gln-Lys-Thr-^DPro-Pro-)] (cyclo([Gly(octyl)]ETASIP[N(CH2CH2COOH)Gly]QKT[dP]P))
- IC50 [1]: 30.3 nM
- hNE/PPE selectivity [2]: 512
- IC50 [2]: 15.5 µM
- hNE/hPr3 selectivity (human proteinase 3): 172
- IC50 (human proteinase 3): 5.2 µM

SMILES: CCCCCCCC[C@@H]1NC(=O)[C@@H]2CCCN2C(=O)[C@H]2CCCN2C(=O)[C@H]([C@@H](C)O)NC(=O)[C@H](CCCCN)NC(=O)[C@H](CCC(N)=O)NC(=O)CN(CCCCN)C(=O)[C@@H]2CCCN2C(=O)[C@H]([C@@H](C)CC)NC(=O)[C@H](CO)NC(=O)[C@H](C)NC(=O)[C@H]([C@@H](C)O)NC(=O)[C@H](CCC(=O)O)NC1=O [Example 35, Cyclo(-OctGly-Glu-Thr-Ala-Ser-Ile-Pro-Nlys-Gln-Lys-Thr-^DPro-Pro-)] (cyclo([Gly(octyl)]ETASIP[Nlys]QKT[dP]P))
- IC50 [1]: 7.7 nM
- hNE/PPE selectivity [2]: 208
- IC50 [2]: 1.6 µM
- hNE/hPr3 selectivity (human proteinase 3): 195
- IC50 (human proteinase 3): 1.5 µM

SMILES: CCCCCCCC[C@@H]1NC(=O)[C@@H]2CCCN2C(=O)[C@H]2CCCN2C(=O)[C@H]([C@@H](C)O)NC(=O)[C@H](CCCCN)NC(=O)C[C@H](CCC(N)=O)NC(=O)[C@@H]2CCCN2C(=O)[C@@H]2CCCN2C(=O)[C@H]([C@@H](C)CC)NC(=O)[C@H](CO)NC(=O)[C@H](C)NC(=O)[C@H]([C@@H](C)O)NC(=O)[C@H](CCC(=O)O)NC1=O [Example 36, Cyclo(-OctGly-Glu-Thr-Ala-Ser-Ile-Pro-Pro-[H-β^3-HGln-OH]-Lys-Thr-^DPro-Pro-)] (cyclo([Gly(octyl)]ETASIPP[β3hQ]KT[dP]P))
- IC50 [1]: 16.2 nM
- hNE/PPE selectivity [2]: 685
- IC50 [2]: 11.1 µM
- hNE/hPr3 selectivity (human proteinase 3): 364
- IC50 (human proteinase 3): 5.9 µM

— patent US10273267B2, “Beta-hairpin peptidomimetics as selective elastase inhibitors” (POLYPHOR AG, priority 2013, dated 2019)
